The target in experiment [1] is T1, PDGF-Ra (Homo sapiens, UniProt P16234).
T1 construct: host or cells: G-292 human osteosarcoma cells
The experiment is described as follows: Inhibitory activity against PDGF-Ra phosphorylation by PDGF-AA stimulation using G292. It counts as cell-based. Particulars: for IC50: Pharmacological Test Example 1, > means inhibition at indicated concentration not more than 50%, < and << not less than 50%, read-out: PDGF (E) IC50; for inhibition at 0.1 µM: G292, figure in parentheses in >100( ), at 100 nM, read-out: PDGF (E) inhibition (%) at 100 nM. Summed up:
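Phospho-PDGF-Ra ELISA: capture with PY-20 antiphosphotyrosine, detection with anti-PDGF-Ra and peroxidase secondary, read at 450 nm. Lysates came from G-292 osteosarcoma cells starved in 0.1% FBS, compound-treated 1 hr at 37° C, and stimulated with 50 ng/ml PDGF-AA for 5 min.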

The target in experiment [2] is T2, c-kit (Homo sapiens, UniProt P10721).
T2 construct: MO7e (human megakaryocytic leukemia cell line) which had been arrested for 20 hr; endogenous in cells; host or cells: MO7e human megakaryocytic leukemia cell line
T2 sequence (P10721 26-976): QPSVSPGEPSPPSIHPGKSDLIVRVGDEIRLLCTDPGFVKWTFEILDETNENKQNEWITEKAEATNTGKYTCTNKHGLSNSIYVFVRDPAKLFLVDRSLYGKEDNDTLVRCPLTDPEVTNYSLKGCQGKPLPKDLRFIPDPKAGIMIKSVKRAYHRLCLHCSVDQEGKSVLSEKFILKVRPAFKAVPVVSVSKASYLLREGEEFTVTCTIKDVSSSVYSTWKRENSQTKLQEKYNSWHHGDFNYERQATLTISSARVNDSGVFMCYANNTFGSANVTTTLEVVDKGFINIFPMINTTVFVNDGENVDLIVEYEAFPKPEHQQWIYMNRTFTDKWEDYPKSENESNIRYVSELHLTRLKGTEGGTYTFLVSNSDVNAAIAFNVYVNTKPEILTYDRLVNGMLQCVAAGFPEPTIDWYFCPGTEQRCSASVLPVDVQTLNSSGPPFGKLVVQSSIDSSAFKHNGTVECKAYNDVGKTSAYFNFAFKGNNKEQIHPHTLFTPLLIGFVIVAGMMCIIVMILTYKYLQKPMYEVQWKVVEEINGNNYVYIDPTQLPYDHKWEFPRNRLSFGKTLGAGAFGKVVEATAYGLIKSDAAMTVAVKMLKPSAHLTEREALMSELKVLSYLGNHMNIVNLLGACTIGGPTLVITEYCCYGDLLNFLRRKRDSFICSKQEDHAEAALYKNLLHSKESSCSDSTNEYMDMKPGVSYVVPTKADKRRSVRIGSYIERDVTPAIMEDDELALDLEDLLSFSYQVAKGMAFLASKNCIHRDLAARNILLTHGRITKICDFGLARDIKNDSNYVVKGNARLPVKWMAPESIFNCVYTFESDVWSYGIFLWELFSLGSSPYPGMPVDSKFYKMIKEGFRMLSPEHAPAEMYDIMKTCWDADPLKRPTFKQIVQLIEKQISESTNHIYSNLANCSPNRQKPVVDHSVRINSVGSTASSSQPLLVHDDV
The experiment is described as follows: Inhibitory activity against c-kit autophosphorylation (MO7e cells, h-SCF). The conditions noted are these: for IC50: MO7e cells, h-SCF 50 ng/ml, read-out: c-kit IC50. It counts as cell-based. Summed up: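 Phospho-c-kit ELISA: plate-bound PY-20 anti-phosphotyrosine captures lysate, anti-c-kit plus peroxidase-labelled secondary antibody detect, read at 450 nm. Lysates come from 20 hr-arrested MO7e cells given compound for 1 hr before a 5 min 50 ng/ml h-SCF stimulus.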

A value given as a limit tells only on which side of the number the result lay.

T1 sequence (P16234 24-1089): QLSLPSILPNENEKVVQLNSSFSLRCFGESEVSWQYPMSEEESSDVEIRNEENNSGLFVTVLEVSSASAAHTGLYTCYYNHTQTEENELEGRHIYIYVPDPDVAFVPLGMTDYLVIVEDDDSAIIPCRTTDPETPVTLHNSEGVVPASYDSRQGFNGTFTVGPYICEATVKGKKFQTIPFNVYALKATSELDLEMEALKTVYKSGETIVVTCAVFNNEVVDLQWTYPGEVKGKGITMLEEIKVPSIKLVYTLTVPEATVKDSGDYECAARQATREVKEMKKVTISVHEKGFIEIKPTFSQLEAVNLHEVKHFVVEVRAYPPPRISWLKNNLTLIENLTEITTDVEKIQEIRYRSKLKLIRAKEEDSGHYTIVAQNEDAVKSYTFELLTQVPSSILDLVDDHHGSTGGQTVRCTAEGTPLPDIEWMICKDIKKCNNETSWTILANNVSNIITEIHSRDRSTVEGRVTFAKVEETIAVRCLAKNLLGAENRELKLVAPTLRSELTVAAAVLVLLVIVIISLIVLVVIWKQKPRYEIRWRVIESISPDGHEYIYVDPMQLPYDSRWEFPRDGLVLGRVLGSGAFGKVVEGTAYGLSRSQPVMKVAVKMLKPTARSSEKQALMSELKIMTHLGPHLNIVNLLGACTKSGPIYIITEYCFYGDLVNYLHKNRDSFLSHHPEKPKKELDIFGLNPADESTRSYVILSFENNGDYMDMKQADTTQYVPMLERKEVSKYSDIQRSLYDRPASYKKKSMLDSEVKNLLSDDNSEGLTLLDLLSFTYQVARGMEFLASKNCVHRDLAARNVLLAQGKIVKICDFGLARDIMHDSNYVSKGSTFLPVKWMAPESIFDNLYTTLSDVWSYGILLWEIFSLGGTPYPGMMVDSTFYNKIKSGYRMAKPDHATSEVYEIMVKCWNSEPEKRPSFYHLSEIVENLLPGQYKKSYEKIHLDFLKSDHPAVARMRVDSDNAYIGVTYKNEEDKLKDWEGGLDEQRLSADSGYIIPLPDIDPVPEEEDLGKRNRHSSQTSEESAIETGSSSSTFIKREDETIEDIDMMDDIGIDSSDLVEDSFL

For orientation: IC50 means the concentration needed to halve the response being measured. Turning to `COc1cc2ncnc(Oc3ccc(NC(=O)OCc4ccc(C(F)(F)F)cc4)c(Cl)c3)c2cc1OC` [Example 25, 4-(Trifluoromethyl)benzyl N-{2-chloro-4-[(6,7-dimethoxy-4-quinazolinyl)oxy]phenyl}carbamate], the IC50 is less than 10 nM in experiment [1] and 566 nM in experiment [2].
In the same order, the values of `COc1cc2nccc(Oc3ccc(NC(=O)OCCCOc4ccccc4Cl)cc3)c2cc1OC` [Example 26, 3-(2-Chlorophenoxy)propyl N-{4-[(6,7-dimethoxy-4-quinolyl)oxy]phenyl}carbamate] are less than 10 nM and 44 nM.
For `COc1cc2nccc(Oc3ccc(NC(=O)OCCCOc4ccc(Cl)cc4)cc3)c2cc1OC` [Example 27, 3-(4-Chlorophenoxy)propyl N-{4-[(6,7-dimethoxy-4-quinolyl)oxy]phenyl}carbamate] the same measures were less than 10 nM and 76 nM.
As to `COc1cc2nccc(Oc3ccc(NC(=O)OCCCOc4ccc(Cl)cc4)c(C)c3C)c2cc1OC` [Example 28, 3-(4-Chlorophenoxy)propyl N-{4-[(6,7-dimethoxy-4-quinolyl)oxy]-2,3-dimethylphenyl}carbamate], the IC50 in experiment [1] was less than 10 nM; in experiment [2], 118 nM.
On to `COc1cc2nccc(Oc3cc(C)c(NC(=O)OCCCOc4ccc(Cl)cc4)cc3C)c2cc1OC` [Example 29, 3-(4-Chlorophenoxy)propyl N-{4-[(6,7-dimethoxy-4-quinolyl)oxy]-2,5-dimethylphenyl}carbamate], for which the IC50 in experiment [1] turned out to be 27 nM; in experiment [2] it was 121 nM.
Turning to `COc1cc2ncnc(Oc3ccc(NC(=O)OCCCOc4ccc(Cl)cc4)cc3)c2cc1OC` [Example 30, 3-(4-Chlorophenoxy)propyl N-{4-[(6,7-dimethoxy-4-quinazolinyl)oxy]phenyl}carbamate], the IC50 was less than 10 nM in experiment [1] and less than 30 nM in experiment [2].
In the same order, the values of `COc1cc2ncnc(Oc3ccc(NC(=O)OCCCOc4ccc(Cl)cc4)c(Cl)c3)c2cc1OC` [Example 31, 3-(4-Chlorophenoxy)propyl N-{2-chloro-4-[(6,7-dimethoxy-4-quinazolinyl)oxy]phenyl}carbamate] are less than 10 nM and 221 nM.
`COc1ccc(C(C)OC(=O)Nc2ccc(Oc3ccnc4cc(OC)c(OC)cc34)cc2)cc1` (stereo not drawn) [Example 32, 1-(4-Methoxyphenyl)ethyl N-{4-[(6,7-dimethoxy-4-quinolyl)oxy]phenyl}carbamate]: the IC50 worked out at 16 nM in experiment [1] and 227 nM in experiment [2].
In the same order, the values of `COc1ccc(C(C)OC(=O)Nc2ccc(Oc3ccnc4cc(OC)c(OC)cc34)c(C)c2C)cc1` (stereo not drawn) [Example 33, 1-(4-Methoxyphenyl)ethyl N-{4-[(6,7-dimethoxy-4-quinolyl)oxy]-2,3-dimethylphenyl}carbamate] are 23 nM and 362 nM.
As a reminder, the inhibition is the relative decrease from the control value, in per cent. On to `COc1ccc(C(C)OC(=O)Nc2cc(C)c(Oc3ccnc4cc(OC)c(OC)cc34)cc2C)cc1` (stereo not drawn) [Example 34, 1-(4-Methoxyphenyl)ethyl N-{4-[(6,7-dimethoxy-4-quinolyl)oxy]-2,5-dimethylphenyl}carbamate], for which, in experiment [1], the inhibition at 0.1 µM was found to be 45%. The IC50 was greater than 100 nM in experiment [1] and 800 nM in experiment [2].
In the case of `COc1ccc(C(C)OC(=O)Nc2ccc(Oc3ncnc4cc(OC)c(OC)cc34)cc2)cc1` (stereo not drawn) [Example 35, 1-(4-Methoxyphenyl)ethyl N-{4-[(6,7-dimethoxy-4-quinazolinyl)oxy]phenyl}carbamate], the IC50 was less than 10 nM in experiment [1] and 342 nM in experiment [2].
Take `COc1ccc(C(C)OC(=O)Nc2ccc(Oc3ncnc4cc(OC)c(OC)cc34)cc2Cl)cc1` (stereo not drawn) [Example 36, 1-(4-Methoxyphenyl)ethyl N-{2-chloro-4-[(6,7-dimethoxy-4-quinazolinyl)oxy]phenyl}carbamate]: in experiment [1], the inhibition at 0.1 µM came to 34% and the IC50 was greater than 100 nM. The inhibition at 1 µM in experiment [2] (Mo7e, figure in parentheses in −( ), at 1000 nM) stood at 19%.
Regarding `COc1cc2nccc(Oc3ccc(NC(=O)OCCCSc4ccc(C)cc4)cc3)c2cc1OC` [Example 37, 3-[(4-Methylphenyl)sulfanyl)propyl N-{4-[(6,7-dimethoxy-4-quinolyl)oxy]phenyl}carbamate], the results for the concentration for half-maximal inhibition (IC50) in experiment [1] and in experiment [2] were less than 10 nM and less than 30 nM, respectively.
`COc1cc2nccc(Oc3ccc(NC(=O)OCCCSc4ccc(C)cc4)c(C)c3C)c2cc1OC` [Example 38]: the 50% inhibitory concentration (IC50) in experiment [1] is less than 10 nM; in experiment [2], 33 nM.
For `COc1cc2nccc(Oc3cc(C)c(NC(=O)OCCCSc4ccc(C)cc4)cc3C)c2cc1OC` [Example 39, 3-[(4-Methylphenyl)sulfanyl)propyl N-{4-[(6,7-dimethoxy-4-quinolyl)oxy]-2,5-dimethylphenyl}-carbamate] the same measures were less than 10 nM and 56 nM.
For `COc1cc2ncnc(Oc3ccc(NC(=O)OCCCSc4ccc(C)cc4)cc3)c2cc1OC` [Example 40, 3-[(4-Methylphenyl)sulfanyl)propyl N-{4-[(6,7-dimethoxy-4-quinazolinyl)oxy]phenyl}carbamate] the same measures were less than 10 nM and 55 nM.
`COc1cc2ncnc(Oc3ccc(NC(=O)OCCCSc4ccc(C)cc4)c(Cl)c3)c2cc1OC` [Example 41, 3-[(4-Methylphenyl)sulfanyl)propyl N-{2-chloro-4-[(6,7-dimethoxy-4-quinazolinyl)oxy]phenyl}-carbamate]: the concentration for half-maximal inhibition (IC50) in experiment [1] was less than 10 nM; in experiment [2] it was 185 nM.
In the same order, the values of `COc1ccc(OCCCOC(=O)Nc2ccc(Oc3ccnc4cc(OC)c(OC)cc34)cc2)cc1` [Example 42, 3-(4-Methoxyphenoxy)propyl N-{4-[(6,7-dimethoxy-4-quinolyl)oxy]phenyl}carbamate] are less than 10 nM and 73 nM.
Regarding `COc1ccc(OCCCOC(=O)Nc2ccc(Oc3ccnc4cc(OC)c(OC)cc34)c(C)c2C)cc1` [Example 43, 3-(4-Methoxyphenoxy)propyl N-{4-[(6,7-dimethoxy-4-quinolyl)oxy]-2,3-dimethylphenyl}carbamate], the results for the IC50 in experiment [1] and in experiment [2] were less than 10 nM and 158 nM, respectively.
For `COc1ccc(OCCCOC(=O)Nc2cc(C)c(Oc3ccnc4cc(OC)c(OC)cc34)cc2C)cc1` [Example 44, 3-(4-Methoxyphenoxy)propyl N-{4-[(6,7-dimethoxy-4-quinolyl)oxy]-2,5-dimethylphenyl}carbamate], the concentration for half-maximal inhibition (IC50) in experiment [1] worked out at 19 nM; in experiment [2], 328 nM.
In the case of `COc1ccc(OCCCOC(=O)Nc2ccc(Oc3ncnc4cc(OC)c(OC)cc34)cc2)cc1` [Example 45, 3-(4-Methoxyphenoxy)propyl N-{4-[(6,7-dimethoxy-4-quinazolinyl)oxy]phenyl}carbamate], the concentration for half-maximal inhibition (IC50) in experiment [1] was less than 10 nM; in experiment [2], 91 nM.
In the same order, the values of `COc1ccc(OCCCOC(=O)Nc2ccc(Oc3ncnc4cc(OC)c(OC)cc34)cc2Cl)cc1` [Example 46, 3-(4-Methoxyphenoxy)propyl N-{2-chloro-4-[(6,7-dimethoxy-4-quinazolinyl)oxy]phenyl}carbamate] are 22 nM and 388 nM.
Regarding `COc1cccc(OCCCOC(=O)Nc2ccc(Oc3ccnc4cc(OC)c(OC)cc34)c(C)c2C)c1` [Example 48, 3-(3-Methoxyphenoxy)propyl N-{4-[(6,7-dimethoxy-4-quinolyl)oxy]-2,3-dimethylphenyl}carbamate], the half-maximal inhibitory concentration (IC50) was less than 10 nM in experiment [1] and 162 nM in experiment [2].

The record behind these values is US7135466B2 (Kirin Beer Kabushiki Kaisha, priority 1999, dated 2006).
